IC50 data for 12 molecules are collected here from US11566007B2, “Ras inhibitors” (Revolution Medicines, Inc., priority 2019, dated 2023).

Type in all cases: biochemical
One experiment has as its target KRAS G12D (Homo sapiens (Human), UniProt P01116+P62937, G12D). Nature of the experiment: Ras-Raf (BRAF RBD) disruption / FRET / MOA assay, KRAS G12D. As to conditions: Ras-Raf disruption/FRET/MOA assay; class symbols; read-out: KRAS G12D FRET data IC50. Put shortly: (§1)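 Ternary complex formation (Ras–compound–cyclophilin A) displacing BRAF RBD, monitored by TR-FRET. Three hours at 25° C with compound (top 30 μM final), then 1.5 h with the labelled antibodies. Lower ratio than DMSO indicates disruption; IC50 reported.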

The target in the next experiment is K-Ras G12C (Homo sapiens (Human), UniProt P01116+P62937, G12C). The experiment is described as follows: Ras-Raf (BRAF RBD) disruption / FRET / MOA assay, KRAS G12C. The following applies: KRAS G12C; Ras-Raf disruption/FRET/MOA assay; read-out: IC50* KRAS G12C FRET data. Put shortly: as §1
Chain of K-Ras G12C (P01116-2 other isoform, or with tags, fused parts or gaps G12C): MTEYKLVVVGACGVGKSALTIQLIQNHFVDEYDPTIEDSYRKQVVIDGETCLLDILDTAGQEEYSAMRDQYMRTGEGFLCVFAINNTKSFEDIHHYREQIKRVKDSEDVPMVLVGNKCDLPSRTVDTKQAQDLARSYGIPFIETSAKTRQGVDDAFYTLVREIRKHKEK
Chain of K-Ras G12C (P62937 whole entry): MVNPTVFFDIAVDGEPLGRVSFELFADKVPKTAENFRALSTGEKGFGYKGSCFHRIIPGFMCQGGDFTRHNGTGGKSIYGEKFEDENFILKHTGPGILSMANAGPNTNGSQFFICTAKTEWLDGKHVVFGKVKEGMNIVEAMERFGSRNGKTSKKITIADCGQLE
Another experiment concerns the target KRAS Q61H (Homo sapiens (Human), UniProt P01116+P62937, Q61H). Nature of the experiment: Ras-Raf (BRAF RBD) disruption / FRET / MOA assay, KRAS Q61H. The following applies: Ras-Raf disruption/FRET/MOA assay; class symbols; read-out: KRAS Q61H FRET data IC50. Put shortly:
(§2)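 Compounds were tested as a 10-point 3-fold dilution series from 30 μM final for their ability to drive ternary complex formation between nucleotide-loaded Ras and cyclophilin A, displacing the BRAF RBD. After 3 h at 25° C., anti-His Eu-W1024 (10 nM) and anti-GST allophycocyanin (50 nM) were added for 1.5 h. A TR-FRET ratio decrease versus DMSO gave IC50.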

A further experiment deals with NRAS Q61K (Homo sapiens (Human), UniProt P01111+P62937, Q61K). Nature of the experiment: Ras-Raf (BRAF RBD) disruption / FRET / MOA assay, NRAS Q61K. As to conditions: NRAS Q61K; Ras-Raf disruption/FRET/MOA assay; read-out: IC50* NRAS Q61K FRET data. The method, boiled down:
as §2

The next experiment concerns the target KRAS G13D (Homo sapiens (Human), UniProt P01116+P62937, G13D). Nature of the experiment: Ras-Raf (BRAF RBD) disruption / FRET / MOA assay, KRAS G13D. The following applies: read-out: IC50* KRAS G13D FRET data. The method, boiled down:
as §1

Another experiment concerns the target NRAS G12C (Homo sapiens (Human), UniProt P01111+P62937, G12C). Nature of the experiment: Ras-Raf (BRAF RBD) disruption / FRET / MOA assay, NRAS G12C. The following applies: read-out: IC50* NRAS G12C FRET data. The method, boiled down: as §1
The next experiment has as its target KRAS G12S (Homo sapiens (Human), UniProt P01116+P62937, G12S). Nature of the experiment: Ras-Raf (BRAF RBD) disruption / FRET / MOA assay, KRAS G12S. As to conditions: Ras-Raf disruption/FRET/MOA assay; class symbols; read-out: KRAS G12S FRET data IC50. The method, boiled down:
as §1

The next experiment addresses NRAS WT (Homo sapiens (Human), UniProt P01111+P62937). Nature of the experiment: Ras-Raf (BRAF RBD) disruption / FRET / MOA assay, NRAS WT. The following applies: read-out: IC50* NRAS WT FRET data. Put shortly: as §2
For the next experiment, the target named is KRAS G12V (Homo sapiens (Human), UniProt P01116+P62937, G12V). Nature of the experiment: Ras-Raf (BRAF RBD) disruption / FRET / MOA assay, KRAS G12V. As to conditions: read-out: IC50* KRAS G12V FRET data. Put shortly:
as §1

Chain of KRAS G12S (P01116-2 other isoform, or with tags, fused parts or gaps G12S): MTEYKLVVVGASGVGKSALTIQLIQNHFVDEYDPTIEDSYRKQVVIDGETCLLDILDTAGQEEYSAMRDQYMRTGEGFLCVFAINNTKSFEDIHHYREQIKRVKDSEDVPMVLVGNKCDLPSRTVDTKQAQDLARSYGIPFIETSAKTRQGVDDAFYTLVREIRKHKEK
Chain of KRAS G12S (P62937 whole entry): as the sequence (P62937 whole entry) above
Chain of NRAS G12C (P01111 whole entry G12C): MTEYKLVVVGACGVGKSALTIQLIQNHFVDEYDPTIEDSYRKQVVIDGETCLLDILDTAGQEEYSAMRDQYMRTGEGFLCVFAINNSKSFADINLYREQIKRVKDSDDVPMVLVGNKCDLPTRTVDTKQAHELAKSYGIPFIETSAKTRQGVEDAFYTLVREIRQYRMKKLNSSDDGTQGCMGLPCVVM
Chain of NRAS G12C (P62937 whole entry): as the sequence (P62937 whole entry) above
Chain of KRAS Q61H (P01116-2 other isoform, or with tags, fused parts or gaps Q61H): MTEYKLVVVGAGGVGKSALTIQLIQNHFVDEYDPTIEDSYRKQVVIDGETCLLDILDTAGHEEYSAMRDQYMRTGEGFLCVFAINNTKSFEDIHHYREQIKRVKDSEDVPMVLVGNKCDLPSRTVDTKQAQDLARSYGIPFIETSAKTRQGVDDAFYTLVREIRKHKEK
Chain of KRAS Q61H (P62937 whole entry): as the sequence (P62937 whole entry) above
Chain of NRAS Q61K (P01111 whole entry Q61K): as the sequence (P01111 whole entry G12C) above, with C12G, Q61K counted along it
Chain of NRAS Q61K (P62937 whole entry): as the sequence (P62937 whole entry) above
Chain of KRAS G13D (P01116-2 other isoform, or with tags, fused parts or gaps G13D): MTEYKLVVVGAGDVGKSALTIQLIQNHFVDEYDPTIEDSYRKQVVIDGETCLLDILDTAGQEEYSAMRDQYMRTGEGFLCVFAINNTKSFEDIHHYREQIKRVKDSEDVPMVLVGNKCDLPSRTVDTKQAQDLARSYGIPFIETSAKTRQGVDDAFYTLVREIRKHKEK
Chain of KRAS G13D (P62937 whole entry): as the sequence (P62937 whole entry) above
Chain of NRAS WT (P01111 whole entry): as the sequence (P01111 whole entry G12C) above, with C12G counted along it
Chain of NRAS WT (P62937 whole entry): as the sequence (P62937 whole entry) above
Chain of KRAS G12D (P01116-2 other isoform, or with tags, fused parts or gaps G12D): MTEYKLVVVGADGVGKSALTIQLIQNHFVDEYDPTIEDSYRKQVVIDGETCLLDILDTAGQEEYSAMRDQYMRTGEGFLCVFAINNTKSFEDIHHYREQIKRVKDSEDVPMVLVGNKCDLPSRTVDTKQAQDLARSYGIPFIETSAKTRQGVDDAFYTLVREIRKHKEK
Chain of KRAS G12D (P62937 whole entry): as the sequence (P62937 whole entry) above
Chain of KRAS G12V (P01116-2 other isoform, or with tags, fused parts or gaps G12V): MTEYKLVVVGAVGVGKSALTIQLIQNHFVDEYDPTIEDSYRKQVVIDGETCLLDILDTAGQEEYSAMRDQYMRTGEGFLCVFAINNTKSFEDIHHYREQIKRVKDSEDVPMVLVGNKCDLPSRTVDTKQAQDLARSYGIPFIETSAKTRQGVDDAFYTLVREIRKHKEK
Chain of KRAS G12V (P62937 whole entry): as the sequence (P62937 whole entry) above

With `CO[C@@H](C)c1ncccc1-c1c2c3cc(ccc3n1CC(F)(F)F)-c1csc(n1)C[C@H](NC(=O)[C@H](C(C)C)N(C)C(=O)N1CCC3(CC1)CN(C(=O)/C=C/CF)C3)C(=O)N1CCC[C@H](N1)C(=O)OCC(C)(C)C2` (atropisomer, axis not shown) [Example A602], the IC50 fell in the range of 0.1 to 1 µM on KRAS G12D; 0.01 to 0.1 µM on K-Ras G12C; 0.01 to 0.1 µM on KRAS Q61H; 0.01 to 0.1 µM at NRAS Q61K; 0.1 to 1 µM at KRAS G13D; 0.01 to 0.1 µM at NRAS G12C. Moreover, the IC50 on KRAS G12S, on NRAS WT and on KRAS G12V was 0.01 to 0.1 µM in each case.
As to `C=CC(=O)N1CCOC2(CCN(C(=O)N(C)[C@H](C(=O)N[C@H]3Cc4nc(n(C)n4)-c4ccc5c(c4)c(c(-c4cccnc4[C@H](C)OC)n5CC(F)(F)F)CC(C)(C)COC(=O)[C@@H]4CCCN(N4)C3=O)C(C)C)CC2)C1` (atropisomer, axis not shown) [Example A606], the IC50 at KRAS G12D fell in the range of 1 to 10 µM; at K-Ras G12C, 0.1 to 1 µM; on KRAS Q61H, 0.01 to 0.1 µM; on NRAS Q61K it was 0.1 to 1 µM; at KRAS G13D, 0.1 to 1 µM; on NRAS G12C it was 0.1 to 1 µM. The IC50 on KRAS G12S, at NRAS WT and at KRAS G12V was 0.1 to 1 µM each time.
On to `C=CC(=O)N1CC2(C1)OCCN2C(=O)N(C)[C@H](C(=O)N[C@H]1Cc2nc(cs2)-c2ccc3c(c2)c(c(-c2cccnc2[C@H](C)OC)n3CC)CC(C)(C)COC(=O)[C@@H]2CCCN(N2)C1=O)C(C)C` (atropisomer, axis not shown) [Example A620], for which the IC50 on KRAS G12D is 1 to 10 µM; on K-Ras G12C, less than 0.01 µM; at KRAS Q61H, 0.01 to 0.1 µM; at NRAS Q61K, 0.01 to 0.1 µM; at KRAS G13D, 0.1 to 1 µM; on NRAS G12C it was less than 0.01 µM. In addition, the IC50 at KRAS G12S, on NRAS WT and on KRAS G12V was 0.1 to 1 µM in each case.
For `CCn1c(-c2cccnc2[C@H](C)OC)c2c3cc(ccc31)-c1cccc(n1)C[C@H](NC(=O)[C@H](C(C)C)N(C)C(=O)N1CCC13CN(C(=O)C#CC(C)(C)N(C)C)C3)C(=O)N1CCC[C@H](N1)C(=O)OCC(C)(C)C2` (atropisomer, axis not shown) [Example A623], the IC50 at KRAS G12D was 1 to 10 µM; on K-Ras G12C, 0.1 to 1 µM; at KRAS Q61H, 0.1 to 1 µM; on NRAS Q61K, 0.1 to 1 µM; at KRAS G13D, 1 to 10 µM; at NRAS G12C it was 0.1 to 1 µM. Moreover, the IC50 at KRAS G12S, on NRAS WT and on KRAS G12V was 1 to 10 µM each time.
Regarding `CCn1c(-c2cccnc2[C@H](C)OC)c2c3cc(ccc31)-c1csc(n1)C[C@H](NC(=O)C[C@H](C)OC1CN(C(=O)C#CC(C)(C)N(C)C)C1)C(=O)N1CCC[C@H](N1)C(=O)OCC(C)(C)C2` (atropisomer, axis not shown) [Example A637], the IC50 at KRAS G12D is more than 10 µM; on K-Ras G12C it was 0.01 to 0.1 µM; on KRAS Q61H, 1 to 10 µM; at NRAS Q61K it was 1 to 10 µM; at KRAS G13D, 1 to 10 µM; on NRAS G12C it was 0.01 to 0.1 µM. Moreover, the IC50 at KRAS G12S, on NRAS WT and at KRAS G12V was 1 to 10 µM in each case.
As to `CO[C@@H](C)c1ncccc1-c1c2c3cc(ccc3n1CC(F)(F)F)N1CCO[C@@H](C[C@H](NC(=O)[C@H](C(C)C)N3CC[C@]4(CCN(C(=O)C#CC(C)(C)N(C)C)C4)C3=O)C(=O)N3CCC[C@H](N3)C(=O)OCC(C)(C)C2)C1` (atropisomer, axis not shown) [Example A642], the half-inhibitory concentration (IC50) at KRAS G12D is more than 10 µM; on K-Ras G12C, less than 0.01 µM; on KRAS Q61H, 1 to 10 µM; at NRAS Q61K, more than 10 µM; on KRAS G13D it was 1 to 10 µM; at NRAS G12C, less than 0.01 µM. Further, the IC50 at KRAS G12S, on NRAS WT and on KRAS G12V was 1 to 10 µM each time.
Take `CCn1c(-c2cccnc2[C@H](C)OC)c2c3cc(ccc31)N1CCO[C@@H](C[C@H](NC(=O)[C@H](C(C)C)N(C)C(=O)C3(F)CCN(C(=O)C#CC(C)(C)N(C)C)CC3)C(=O)N3CCC[C@H](N3)C(=O)OCC(C)(C)C2)C1` (atropisomer, axis not shown) [Example A647, 1-(4-(dimethylamino)-4-methylpent-2-ynoyl)-N-((2S)-1-(((2^2S,6^3S,4S)-1^1-ethyl-1^2-(2-((S)-1-methoxyethyl)pyridin-3-yl)-10,10-dimethyl-5,7-dioxo-6^1,6^2,6^3,6^4,6^5,6^6-hexahydro-1^1H-8-oxa-2(4,2)-morpholina-1(5,3)-indola-6(1,3)-pyridazinacycloundecaphane-4-yl)amino)-3-methyl-1-oxobutan-2-yl)-4-fluoro-N-methylpiperidine-4-carboxamide]: the IC50 on KRAS G12D is 1 to 10 µM; on K-Ras G12C, less than 0.01 µM; on KRAS Q61H, 1 to 10 µM; on NRAS Q61K it was 1 to 10 µM; at KRAS G13D it was 1 to 10 µM; at NRAS G12C, less than 0.01 µM. Moreover, the IC50 at KRAS G12S is 1 to 10 µM; at NRAS WT it was 0.1 to 1 µM; on KRAS G12V it was 1 to 10 µM.
As to `C=CC(=O)N1CC[C@]2(C1)OCN([C@H](C(=O)N[C@H]1Cc3cccc(n3)-c3ccc4c(c3)c(c(-c3cccnc3[C@H](C)OC)n4CC)CC(C)(C)COC(=O)[C@@H]3CCCN(N3)C1=O)C(C)C)C2=O` (atropisomer, axis not shown) [Example A652], the IC50 on KRAS G12D was more than 10 µM; on K-Ras G12C, 0.1 to 1 µM; on KRAS Q61H, 1 to 10 µM; at NRAS Q61K it was 1 to 10 µM; on KRAS G13D it was 1 to 10 µM; on NRAS G12C, 0.1 to 1 µM. Also, the IC50 on KRAS G12S, at NRAS WT and at KRAS G12V was 1 to 10 µM throughout.
For `CCn1c(-c2cccnc2[C@H](C)OC)c2c3cc(ccc31)-c1cc(CF)cc(c1)C[C@H](NC(=O)[C@H](C(C)C)N(C)C(=O)[C@H]1CCN(C(=O)C#CC(C)(C)N(C)C)C1)C(=O)N1CCC[C@H](N1)C(=O)OCC(C)(C)C2` (atropisomer, axis not shown) [Example A658], the IC50 on KRAS G12D is 1 to 10 µM; on K-Ras G12C, less than 0.01 µM; on KRAS Q61H, 1 to 10 µM; at NRAS Q61K, more than 10 µM; at KRAS G13D, 1 to 10 µM; on NRAS G12C, less than 0.01 µM. Further, the IC50 on KRAS G12S, on NRAS WT and at KRAS G12V was 1 to 10 µM in each case.
For the molecule `C=CC(=O)N1CC2(CCCN2C(=O)N(C)[C@H](C(=O)N[C@H]2Cc3nc(cs3)-c3ccc4c(c3)c(c(-c3cccnc3[C@H](C)OC)n4CC)CC(C)(C)COC(=O)[C@@H]3CCCN(N3)C2=O)C(C)C)C1` (atropisomer, axis not shown) [Example A667], the IC50 on KRAS G12D was 0.1 to 1 µM; at K-Ras G12C it was less than 0.01 µM; at KRAS Q61H it was 0.01 to 0.1 µM; at NRAS Q61K it was 0.01 to 0.1 µM; on KRAS G13D, 0.1 to 1 µM; at NRAS G12C, less than 0.01 µM. The results for the IC50 at KRAS G12S, at NRAS WT and at KRAS G12V were 0.1 to 1 µM, 0.01 to 0.1 µM and 0.1 to 1 µM, respectively.
As to `CCn1c(-c2cccnc2[C@H](C)OC)c2c3cc(ccc31)-c1cc(CF)cc(c1)C[C@H](NC(=O)[C@H](C(C)C)N1CC[C@]3(CCN(C(=O)C#CC(C)(C)N(C)C)C3)C1=O)C(=O)N1CCC[C@H](N1)C(=O)OCC(C)(C)C2` (atropisomer, axis not shown) [Example A673], the IC50 at KRAS G12D was 1 to 10 µM; at K-Ras G12C it was less than 0.01 µM; at KRAS Q61H, 0.1 to 1 µM; on NRAS Q61K it was 1 to 10 µM; at KRAS G13D, 1 to 10 µM; on NRAS G12C, less than 0.01 µM. Further, the IC50 lay in the range of 1 to 10 µM at KRAS G12S, 1 to 10 µM at NRAS WT and 0.1 to 1 µM on KRAS G12V.
Regarding `CCn1c(-c2cccnc2[C@H](C)OC)c2c3cc(ccc31)-c1cccc(c1)C[C@H](NC(=O)[C@H](C(C)C)N(C)C(=O)C1(F)CCN(C(=O)/C=C/CN(C)C)CC1)C(=O)N1CCC[C@H](N1)C(=O)OCC(C)(C)C2` (atropisomer, axis not shown) [Example A685], the IC50 lay within 0.1 to 1 µM at KRAS G12D; 0.01 to 0.1 µM on K-Ras G12C; 0.1 to 1 µM on KRAS Q61H; 0.1 to 1 µM on NRAS Q61K; 0.1 to 1 µM at KRAS G13D; 0.01 to 0.1 µM at NRAS G12C. The IC50 on KRAS G12S, on NRAS WT and at KRAS G12V was 0.1 to 1 µM each time.
